Source: ChEMBL document CHEMBL1201862, “PubChem BioAssay data set” (2004)
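Five compound concentrations were applied to cells in 96-well plates for 48 hours; endpoints were derived by simple linear interpolation of the resulting dose-response curve. Abbreviation: GI50, concentration required for 50% inhibition of growth.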 Calls of active or inactive are those of the source. No stated cut-off is given here; in the data, active = GI50 up to about 1.1 µM and inactive = higher.

How the values were obtained:
Experiment in all cases: inhibition of tumour cell growth, NCI panel, 48 h
[1] = test system: 786-0
[2] = test system: SF-539
[3] = test system: HOP-92
[4] = test system: A498
[5] = test system: M19-MEL
[6] = test system: SNB-75
[7] = test system: SK-MEL-28
[8] = test system: HOP-62
[9] = test system: UACC-257
[10] = test system: SNB-78
[11] = test system: HT-29
[12] = test system: EKVX
[13] = test system: NCI-H23
[14] = test system: OVCAR-8
[15] = test system: SF-295
[16] = test system: SK-MEL-5
[17] = test system: CCRF-CEM
[18] = test system: NCI-H522
[19] = test system: UO-31

Row | SMILES | GI50 [1] | GI50 [2] | GI50 [3] | GI50 [4] | GI50 [5] | GI50 [6] | GI50 [7] | GI50 [8] | GI50 [9] | GI50 [10] | GI50 [11] | GI50 [12] | GI50 [13] | GI50 [14] | GI50 [15] | GI50 [16] | GI50 [17] | GI50 [18] | GI50 [19]
1 | CCS[C@H]1NC(=O)C1[C@H](C)O[Si](C)(C)C(C)(C)C (stereo partly drawn) | > 100 µM (inactive) | > 100 µM (inactive) | 79.8 µM (inactive) | > 100 µM (inactive) | > 100 µM (inactive) | > 100 µM (inactive) | > 100 µM (inactive) | > 100 µM (inactive) | 48 µM (inactive) | > 100 µM (inactive) | > 100 µM (inactive) | > 100 µM (inactive) | > 100 µM (inactive) | > 100 µM (inactive) | > 100 µM (inactive) | – | – | – | –
2 | CC(=O)NC1=C(C)C(=O)c2c(nc3n2CCC3O)C1=N (stereo not drawn) | 18.6 µM (inactive) | 4.15 µM (inactive) | 4.36 µM (inactive) | 27.2 µM (inactive) | 2.36 µM (inactive) | 26.2 µM (inactive) | 17.2 µM (inactive) | 38.8 µM (inactive) | 3.9 µM (inactive) | 3.05 µM (inactive) | 17.6 µM (inactive) | 21.1 µM (inactive) | 14.8 µM (inactive) | 4.55 µM (inactive) | 19.3 µM (inactive) | 13 µM (inactive) | 2.93 µM (inactive) | 6.75 µM (inactive) | 22.9 µM (inactive)
3 | O=C(O)/C=C/c1nc2ccccc2c(=O)o1 | > 100 µM (inactive) | > 100 µM (inactive) | > 100 µM (inactive) | – | > 100 µM (inactive) | > 100 µM (inactive) | > 100 µM (inactive) | – | – | > 100 µM (inactive) | > 100 µM (inactive) | > 100 µM (inactive) | > 100 µM (inactive) | > 100 µM (inactive) | > 100 µM (inactive) | > 100 µM (inactive) | 77.3 µM (inactive) | > 100 µM (inactive) | > 100 µM (inactive)
4 | CN(C)CCNC(=O)c1cccc2nc3ccc4cccnc4c3nc12 | 0.454 µM (active) | 0.19 µM (active) | 0.351 µM (active) | 0.214 µM (active) | 0.43 µM (active) | 0.507 µM (active) | 0.944 µM (active) | 0.393 µM (active) | 0.447 µM (active) | 0.482 µM (active) | 0.208 µM (active) | 0.507 µM (active) | 0.294 µM (active) | 0.194 µM (active) | 0.644 µM (active) | 0.343 µM (active) | 0.213 µM (active) | – | 0.205 µM (active)
5 | O=C(CCCCCCCCCCc1ccccc1)C1=C(O)CC(O)CC1=O (stereo not drawn) | 58.1 µM (inactive) | 86.7 µM (inactive) | 33.3 µM (inactive) | – | 53.3 µM (inactive) | > 100 µM (inactive) | 72.4 µM (inactive) | > 100 µM (inactive) | 63.1 µM (inactive) | > 100 µM (inactive) | 47.6 µM (inactive) | 81.1 µM (inactive) | 56.4 µM (inactive) | 49.7 µM (inactive) | 56.8 µM (inactive) | 48 µM (inactive) | 45.1 µM (inactive) | 33.4 µM (inactive) | 60.5 µM (inactive)
6 | Nc1ncnc2c1ncn2C1CC(OC2CCCCO2)C(CO)O1 (stereo not drawn) | > 100 µM (inactive) | > 100 µM (inactive) | > 100 µM (inactive) | > 100 µM (inactive) | > 100 µM (inactive) | – | > 100 µM (inactive) | > 100 µM (inactive) | > 100 µM (inactive) | > 100 µM (inactive) | > 100 µM (inactive) | 67.5 µM (inactive) | > 100 µM (inactive) | > 100 µM (inactive) | > 100 µM (inactive) | – | > 100 µM (inactive) | > 100 µM (inactive) | > 100 µM (inactive)
7 | O=C(Nc1cccc(Cl)c1)C(=O)C(C(=O)c1ccc2ccccc2c1)C1OC(=O)c2ccccc21 (stereo not drawn) | 10.6 µM (inactive) | 7.8 µM (inactive) | 20.6 µM (inactive) | 6.01 µM (inactive) | 13.8 µM (inactive) | 5.31 µM (inactive) | 9.62 µM (inactive) | 16.8 µM (inactive) | 17 µM (inactive) | 5.9 µM (inactive) | 31.9 µM (inactive) | 32.7 µM (inactive) | 7.94 µM (inactive) | 13.9 µM (inactive) | – | 14.7 µM (inactive) | 11.2 µM (inactive) | > 10 µM (inactive) | 14.1 µM (inactive)
8 | CCN(CC)C(=O)Cc1[nH][nH]c(=O)c1C(=O)N(CC)CC | > 100 µM (inactive) | > 100 µM (inactive) | > 100 µM (inactive) | > 100 µM (inactive) | > 100 µM (inactive) | > 100 µM (inactive) | > 100 µM (inactive) | > 100 µM (inactive) | > 100 µM (inactive) | > 100 µM (inactive) | > 100 µM (inactive) | > 100 µM (inactive) | > 100 µM (inactive) | > 100 µM (inactive) | > 100 µM (inactive) | – | > 100 µM (inactive) | > 100 µM (inactive) | > 100 µM (inactive)
9 | O=C(CC1(O)C(=O)Nc2ccccc21)c1ccc(O)cc1O (stereo not drawn) | > 100 µM (inactive) | > 100 µM (inactive) | > 100 µM (inactive) | > 100 µM (inactive) | > 100 µM (inactive) | > 100 µM (inactive) | > 100 µM (inactive) | > 100 µM (inactive) | > 100 µM (inactive) | > 100 µM (inactive) | > 100 µM (inactive) | > 100 µM (inactive) | > 100 µM (inactive) | > 100 µM (inactive) | > 100 µM (inactive) | > 100 µM (inactive) | – | > 100 µM (inactive) | > 100 µM (inactive)
10 | C/C=C1/C(=O)O[C@]23C=C[C@@H]4C(C(=O)OC)=CO[C@H](O[C@@H]12)[C@@H]43 [PLUMERICIN] | – | 2.34 µM (inactive) | 1.61 µM (inactive) | 0.838 µM (active) | 0.726 µM (active) | 3.34 µM (inactive) | 1 µM (active) | 6.38 µM (inactive) | 0.592 µM (active) | 1.94 µM (inactive) | 2.18 µM (inactive) | 1.3 µM (inactive) | 0.916 µM (active) | 0.594 µM (active) | 2.46 µM (inactive) | 2.12 µM (inactive) | 0.341 µM (active) | 0.353 µM (active) | 3.12 µM (inactive)
11 | CSc1nc2c(ncn2C2OCC(O)C(O)C2O)c(=O)[nH]1 (stereo not drawn) | – | > 100 µM (inactive) | > 100 µM (inactive) | > 100 µM (inactive) | > 100 µM (inactive) | > 100 µM (inactive) | > 100 µM (inactive) | > 100 µM (inactive) | > 100 µM (inactive) | > 100 µM (inactive) | > 100 µM (inactive) | > 100 µM (inactive) | > 100 µM (inactive) | > 100 µM (inactive) | > 100 µM (inactive) | > 100 µM (inactive) | > 100 µM (inactive) | > 100 µM (inactive) | > 100 µM (inactive)
